Results: patent US20200030202A1, “TWO-STEP TREATMENT FOR DESQUAMATION OF SKIN” (L'OREAL, priority 2018, published 2020)

System: isolated human stratum corneum (SC)
Experiment: DSC lipid disorganization (shift of melting transition temperatures) of treated stratum corneum
Conditions: 15 minutes per treatment, 75% RH, RT
Method: Various compositions (alkaline versus acidic) and treatment protocols were tested and compared to determine which compositions and protocols produced the greatest degree of lipid disorganization, which is a common method for estimating the desquamation efficacy. All DSC experiments were performed on isolated human stratum corneum (SC). The SC was prepared using a standard protocol. Human abdominal skin remaining from plastic surgery was obtained in frozen form. Subcutaneous fat was removed and the dermis was separated from epidermis by plunging the skin into hot water (56° C.) for 1-2 min. The remaining viable epidermis was removed by tryptic digestion at 37° C. overnight. The SC was dried and stored at room temperature and ambient humidity. […]
The degree of lipid disorganization following treatment can be conveniently monitored by the shifts of the melting transition temperatures measured by Differential Scanning Calorimetry (DSC). […]
The maxima of the endothermic peaks corresponding to lipid phase transitions are determined using dedicated software (TA Universal Analysis). The peak position and the transition enthalpy are determined with respect to a manually defined linear baseline. […] The shifts of the melting peak positions (ΔTm(T2) and ΔTm(T3)) are calculated with respect to reference thermogrammes obtained with untreated or vehicle-treated samples. […]

Work on `O=C(O)CO` [70% GA, glycolic acid] yielded a ΔT (Example 3, ΔTeffective=0.7·ΔTm(T2)+0.3ΔTm(T3) vs untreated or vehicle-treated SC, 0.1 gram, decrease of 2° C. considered significant) of −4.6 and a ΔT (Example 4, same manner as Example 3, different alkaline agents) of −7.1.
